Data on one molecule can be found in patent US20110092548A1, “METHOD FOR TREATING/PREVENTING DISEASE USING COGNITIVE ABILITY OF CEREBRUM AND PHARMACEUTICAL” (priority 2006, published 2011).

The subject of series [1] is large intestine cancer patients. Nature of the series: Treatment of large intestine cancer patients (Example 2). It is filed as in vivo, human. The conditions noted are these: Table 2. The text has this:
Next, treatment of 11 large intestine cancer patients is described.
In principle, the same as Example 1.
The following is course of treatment of the large intestine cancer patients.

For series [2] the following is noted: cited from earlier work.

`O=C1O[C@H]([C@@H](O)CO)C(O)=C1O` [vitamin C, ascorbic acid]: the Alive or dead entry in series [1] is on record as “Alive”. Further, in series [2] (heat), the stability to heat result is reported as “weak to heat”. In series [2] (pH 7.0), the oxidation reduction potential entry is reported as “+0.058 V”.
